“And” between values parts separate entries of the source, which are not always exact repeats. Identical values can stand only once.
Tested on: biotinylated monoclonal anti-25OH vitamin D antibody
Experiment: LOCI 25(OH)D immunoassay: 3-epimer cross-reactivity, no anti-3-epimer antibody added
Assay type: binding, sheep
Details: for Avg. Cross-reactivity, No anti-3-epimer VD Ab Added: average of ten patient sera spiked with 100 ng/mL 3-epimer vitamin D3
Description: The 25OH Vitamin D (25(OH)D) immunoassay format employed was a homogeneous competitive chemiluminescent immunoassay based on LOCI® assay technology. The assay was performed on the Siemens Dimension® EXL automated integrated clinical chemistry system (Siemens Healthcare Diagnostics Inc., Deerfield, Ill.). The assay measured the total concentration of 25(OH)D2 and/or 25(OH)D3 in serum and plasma samples. The LOCI® assay reagents included a releasing reagent, two synthetic bead reagents and a biotinylated monoclonal anti-25OH vitamin D antibody reagent. The first bead reagent (designated “Sensibeads”) was coated with streptavidin and contained a photosensitive dye. The second bead reagent (designated “Chemibeads”) was coated with a 25(OH)D3 analog and contained chemiluminescent dye. Sample was incubated with the releasing reagent to release 25(OH)D molecules including 3-epimeric compounds from vitamin D binding proteins. The reaction mixture was then incubated with biotinylated antibody to form a 25(OH)D-biotinylated antibody complex. […] Chemibeads were added to bind excess free biotinylated antibody. Sensibeads were then added to bind to the biotin portion of the biotinylated antibody. Aggregates of Chemibead-analog/antibody-biotin/streptavidin-Sensibeads were formed as a result. Illumination of the reaction mixture with light at 680 nm generates singlet oxygen from Sensibeads, which diffused into the Chemibeads and triggered a chemiluminescent reaction. The resulting chemiluminescent signal was measured at 612 nm and is inversely proportional to the concentration of total 25(OH)D in the sample.
The effect of adding anti-3-epimer-VD antibody 8F10.1 (anti-3-epimer VD Ab) on the 3-epimer cross-reactivity for the assay is shown in Table 1. […] The 3-epimer cross-reactivity was calculated by the difference between 25(OH)D2 or 25(OH)D3 values with and without the spiked 3-epimer compound divided by the amount of added 3-epimer compound.

SMILES: C=C1CC[C@@H](O)C/C1=C/C=C1\CCC[C@]2(C)[C@@H]([C@H](C)CCCC(C)(C)O)CC[C@@H]12 [3-epimer D3, 3-epi-25-hydroxyvitamin D3]
- Avg. Cross-reactivity, No anti-3-epimer VD Ab Added: 13.7%
- Avg. Cross-reactivity, No anti-3-epimer VD Ab Added (listed as 3-epimer vitamin D3 compound): 13.7%
- Cross-Reactivity, No anti-3-epimer VD Ab Added (individual patient sera (Sample ID 1-10) spiked with 100 ng/mL 3-epimer vitamin D3): 17.9% (2×) and 11.9% and 12.6% and 16.1% and 10.2% and 9.1% and 10.5% and 15.3% and 15.5%

— patent US10106498B2, “Compositions relating to vitamin D” (Siemens Healthcare Diagnostics Inc., priority 2014, dated 2018)
